Numbered stars: 1 amine (or outer) side, 2 acyl side, 3 side chain; on linkers, the order of the positions; unused ones are H or OH. Bridge positions count the residues as written; N and C are the ends. Square brackets hold non-standard residues; d marks the D form. Peptide text beside a SMILES is read from it. * marks the point of attachment. Trp(βS-Me,7-OMe) = COc1cccc2c([C@H](C)[C@H](N)C(=O)O)c[nH]c12; Trp(1-CH2COOH) = N[C@@H](Cc1cn(CC(=O)O)c2ccccc12)C(=O)O; Phe(4-CH2CH2COOH) = N[C@@H](Cc1ccc(CCC(=O)O)cc1)C(=O)O; Phe(4-SO2NH2) = N[C@@H](Cc1ccc(S(N)(=O)=O)cc1)C(=O)O; Phe(2-F,4-COOH) = N[C@@H](Cc1ccc(C(=O)O)cc1F)C(=O)O; dPro(trans-4-NMe2) = CN(C)[C@@H]1CN[C@@H](C(=O)O)C1; Trp(7-CN) = N#Cc1cccc2c(C[C@H](N)C(=O)O)c[nH]c12; Trp(7-Cl) = N[C@@H](Cc1c[nH]c2c(Cl)cccc12)C(=O)O; X20 = O=C1NCc2ccc(C[C@H](N[*:1])C(=O)[*:2])cc21; Phe(3-CONH2) = NC(=O)c1cccc(C[C@H](N)C(=O)O)c1; Phe(4-CONH2) = NC(=O)c1ccc(C[C@H](N)C(=O)O)cc1; Phe(4-COOH) = N[C@@H](Cc1ccc(C(=O)O)cc1)C(=O)O; 4Pal(3S-Me) = C[C@@H](c1ccncc1)[C@H](N)C(=O)O; Trp(7-aza) = N[C@@H](Cc1c[nH]c2ncccc12)C(=O)O; Phe(4-CH2NH2) = NCc1ccc(C[C@H](N)C(=O)O)cc1; dPro(trans-4-F) = O=C(O)[C@H]1C[C@H](F)CN1; dPro(4S-NH2) = N[C@@H]1CN[C@@H](C(=O)O)C1; Pip(5R-OH) = O=C(O)[C@@H]1CC[C@@H](O)CN1; X1 = O=C([C@@H]1CC[C@H](N[*:1])C1)[*:2]; Met(O2) = CS(=O)(=O)CC[C@H](N)C(=O)O; NMeT = CN[C@H](C(=O)O)[C@@H](C)O; 4Pal = N[C@@H](Cc1ccncc1)C(=O)O; NMeE = CN[C@@H](CCC(=O)O)C(=O)O; dHyp = O=C(O)[C@H]1C[C@H](O)CN1; Ahp(2) = CCCCC[C@H](N)C(=O)O; NEtAla = CCN[C@@H](C)C(=O)O; αMeS = C[C@](N)(CO)C(=O)O; Carboxymethyl = O=C(O)C*; Nle = CCCC[C@H](N)C(=O)O; Sar = CNCC(=O)O
molecular target: T1, human soluble TNFR1 (sTNFR1) (Homo sapiens, UniProt P19438); experiment: Human sTNFR1-peptide displacement assay (LanthaScreen Eu TR-FRET binding assay); conditions: not given
T1 construct: made in house; host or cells: Sf21 (baculovirus)
T1 sequence (P19438 with tags, fused parts or gaps): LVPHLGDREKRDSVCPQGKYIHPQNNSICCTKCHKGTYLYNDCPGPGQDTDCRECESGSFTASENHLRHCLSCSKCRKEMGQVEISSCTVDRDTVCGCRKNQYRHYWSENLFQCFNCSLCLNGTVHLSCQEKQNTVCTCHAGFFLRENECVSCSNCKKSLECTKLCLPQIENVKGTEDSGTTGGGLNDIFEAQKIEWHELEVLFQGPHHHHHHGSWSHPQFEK
Procedure, shortened: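 Readout is the 665/615 nm TR-FRET ratio (Eu anti-His donor, streptavidin-Alexa647 acceptor), normalized to DMSO and saturating displacer, fit by Morrison-based five-parameter logistic for Kd^app. His-tagged sTNFR1 (1-211) prebound to 100 nM biotinylated peptide SEQ ID NO.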

SMILES | Kd
CCCC[C@@H]1NC(=O)[C@@H]2CC[C@@H](C2)NC(=O)[C@H]([C@@H](C)c2c[nH]c3c(OC)cccc23)NC(=O)CN(C)C(=O)[C@H](Cc2ccc(C(N)=O)cc2)NC(=O)[C@H](Cc2ccc(S(N)(=O)=O)cc2)NC(=O)[C@](C)(CO)NC(=O)[C@H](Cc2c[nH]c3c(C#N)cccc23)NC(=O)[C@H](Cc2ccc(C(=O)O)cc2)NC(=O)[C@H](CC(N)=O)NC(=O)[C@H]2C[C@H](N(C)C)CN2C(=O)[C@H](Cc2cn(CC(=O)O)c3ccccc23)NC(=O)[C@@H]2CC[C@@H](O)CN2C(=O)[C@H](Cc2ccncc2)NC1=O [SEQ ID NO. 2] (cyclo([4Pal][Pip(5R-OH)][Trp(1-CH2COOH)][dPro(trans-4-NMe2)]N[Phe(4-COOH)][Trp(7-CN)][αMeS][Phe(4-SO2NH2)][Phe(4-CONH2)][Sar][Trp(βS-Me,7-OMe)][X1][Nle])) | 70 pM
CCCC[C@@H]1NC(=O)[C@@H]2CC[C@@H](C2)NC(=O)[C@H]([C@@H](C)c2c[nH]c3c(OC)cccc23)NC(=O)CN(C)C(=O)[C@H](Cc2cccc(C(N)=O)c2)NC(=O)[C@H](Cc2ccc(C(N)=O)cc2)NC(=O)[C@](C)(CO)NC(=O)[C@H](Cc2c[nH]c3c(C#N)cccc23)NC(=O)[C@H](Cc2ccc(C(=O)O)cc2)NC(=O)[C@H](CC(N)=O)NC(=O)[C@H]2C[C@H](F)CN2C(=O)[C@H](Cc2c[nH]c3ccccc23)NC(=O)[C@@H]2CC[C@@H](O)CN2C(=O)[C@H](Cc2ccncc2)NC1=O [SEQ ID NO. 21] (cyclo([4Pal][Pip(5R-OH)]W[dPro(trans-4-F)]N[Phe(4-COOH)][Trp(7-CN)][αMeS][Phe(4-CONH2)][Phe(3-CONH2)][Sar][Trp(βS-Me,7-OMe)][X1][Nle])) | 40 pM
CCCC[C@@H]1NC(=O)CSC[C@@H](C(N)=O)NC(=O)[C@H]([C@@H](C)c2c[nH]c3c(OC)cccc23)NC(=O)CN(C)C(=O)[C@H](Cc2ccc(O)cc2)NC(=O)[C@H](Cc2ccc(C(=O)O)cc2)NC(=O)[C@](C)(CO)NC(=O)[C@H](Cc2c[nH]c3c(Cl)cccc23)NC(=O)[C@H](Cc2ccncc2)NC(=O)[C@H](CC(N)=O)NC(=O)[C@H](CCC(=O)O)N(C)C(=O)[C@H](Cc2c[nH]c3ncccc23)NC(=O)[C@H]([C@@H](C)O)N(C)C(=O)[C@H](Cc2ccncc2)NC1=O [SEQ ID NO. 29] ({CH2CO}-[Nle][4Pal][NMeT][Trp(7-aza)][NMeE]N[4Pal][Trp(7-Cl)][αMeS][Phe(4-COOH)]Y[Sar][Trp(βS-Me,7-OMe)]C-NH2; thioether N-14) | 650 pM
CCCC[C@@H]1NC(=O)CSC[C@@H](C(N)=O)NC(=O)[C@H]([C@@H](C)c2c[nH]c3c(OC)cccc23)NC(=O)CN(C)C(=O)[C@H](Cc2ccc(O)cc2)NC(=O)[C@H](Cc2ccc(C(=O)O)cc2)NC(=O)[C@](C)(CO)NC(=O)[C@H](Cc2c[nH]c3c(Cl)cccc23)NC(=O)[C@H](Cc2ccncc2)NC(=O)[C@H](CC(N)=O)NC(=O)[C@H](CCC(=O)O)N(C)C(=O)[C@H](Cc2c[nH]c3ncccc23)NC(=O)[C@H](C)N(CC)C(=O)[C@H](Cc2ccncc2)NC1=O [SEQ ID NO. 38] ({CH2CO}-[Nle][4Pal][NEtAla][Trp(7-aza)][NMeE]N[4Pal][Trp(7-Cl)][αMeS][Phe(4-COOH)]Y[Sar][Trp(βS-Me,7-OMe)]C-NH2; thioether N-14) | 700 pM
CCCC[C@@H]1NC(=O)[C@@H]2CC[C@@H](C2)NC(=O)[C@H]([C@@H](C)c2c[nH]c3c(OC)cccc23)NC(=O)CN(C)C(=O)[C@H](Cc2ccc(C(=O)O)cc2F)NC(=O)[C@H](Cc2ccc(C(N)=O)cc2)NC(=O)[C@](C)(CO)NC(=O)[C@H](Cc2c[nH]c3c(Cl)cccc23)NC(=O)[C@H](Cc2ccc(C(=O)O)cc2F)NC(=O)[C@H](CC(N)=O)NC(=O)[C@H]2C[C@H](O)CN2C(=O)[C@H](Cc2c[nH]c3ccccc23)NC(=O)[C@@H]2CC[C@@H](O)CN2C(=O)[C@H](Cc2ccncc2)NC1=O [SEQ ID NO. 41] (cyclo([4Pal][Pip(5R-OH)]W[dHyp]N[Phe(2-F,4-COOH)][Trp(7-Cl)][αMeS][Phe(4-CONH2)][Phe(2-F,4-COOH)][Sar][Trp(βS-Me,7-OMe)][X1][Nle])) | 70 pM
CCCCC[C@@H]1NC(=O)[C@@H]2CC[C@@H](C2)NC(=O)[C@H]([C@@H](C)c2c[nH]c3c(OC)cccc23)NC(=O)CN(C)C(=O)[C@H](Cc2ccc(C(N)=O)cc2)NC(=O)[C@H](Cc2ccc(C(N)=O)cc2)NC(=O)[C@](C)(CO)NC(=O)[C@H](Cc2c[nH]c3c(C#N)cccc23)NC(=O)[C@H](Cc2ccc(C(=O)O)cc2)NC(=O)[C@H](CC(N)=O)NC(=O)[C@H]2C[C@H](O)CN2C(=O)[C@H](Cc2c[nH]c3ccccc23)NC(=O)[C@H](CCS(C)(=O)=O)NC(=O)[C@H]([C@@H](C)c2ccncc2)NC1=O [SEQ ID NO. 49] (cyclo([Ahp(2)][4Pal(3S-Me)][Met(O2)]W[dHyp]N[Phe(4-COOH)][Trp(7-CN)][αMeS][Phe(4-CONH2)][Phe(4-CONH2)][Sar][Trp(βS-Me,7-OMe)][X1])) | 200 pM

same assay, conditions: displacement of biotinylated peptide SEQ ID NO. 1 from sTNFR1; 20 point titration, 5-parameter fit based on Morrison equation (tight binding); read-out: TR-FRET Kd^app

SMILES | Kd
CCCC[C@@H]1NC(=O)[C@@H]2CC[C@@H](C2)NC(=O)[C@H]([C@@H](C)c2c[nH]c3c(OC)cccc23)NC(=O)CN(C)C(=O)[C@H](Cc2ccc(OCC(=O)O)cc2)NC(=O)[C@H](Cc2ccc(S(N)(=O)=O)cc2)NC(=O)[C@](C)(CO)NC(=O)[C@H](Cc2c[nH]c3c(C#N)cccc23)NC(=O)[C@H](Cc2ccc(OCC(=O)O)cc2)NC(=O)[C@H](CC(N)=O)NC(=O)[C@H]2C[C@H](N)CN2C(=O)[C@H](Cc2cn(CC(=O)O)c3ccccc23)NC(=O)[C@@H]2CC[C@@H](O)CN2C(=O)[C@H](Cc2ccncc2)NC1=O [SEQ ID NO. 18] (cyclo([4Pal][Pip(5R-OH)][Trp(1-CH2COOH)][dPro(4S-NH2)]NY(Carboxymethyl)[Trp(7-CN)][αMeS][Phe(4-SO2NH2)]Y(Carboxymethyl)[Sar][Trp(βS-Me,7-OMe)][X1][Nle])) | 80 pM
CCCC[C@@H]1NC(=O)[C@@H]2CC[C@@H](C2)NC(=O)[C@H]([C@@H](C)c2c[nH]c3c(OC)cccc23)NC(=O)CN(C)C(=O)[C@H](Cc2ccc(C(N)=O)cc2)NC(=O)[C@H](Cc2ccc(C(N)=O)cc2)NC(=O)[C@](C)(CO)NC(=O)[C@H](Cc2c[nH]c3c(C#N)cccc23)NC(=O)[C@H](Cc2ccc3c(c2)C(=O)NC3)NC(=O)[C@H](CC(N)=O)NC(=O)[C@H]2C[C@H](OCC(=O)O)CN2C(=O)[C@H](Cc2cn(CC(=O)O)c3ccccc23)NC(=O)[C@@H]2CC[C@@H](O)CN2C(=O)[C@H](Cc2ccncc2)NC1=O [SEQ ID NO. 22] (cyclo([4Pal][Pip(5R-OH)][Trp(1-CH2COOH)][dHyp](Carboxymethyl)N[X20][Trp(7-CN)][αMeS][Phe(4-CONH2)][Phe(4-CONH2)][Sar][Trp(βS-Me,7-OMe)][X1][Nle])) | 80 pM
CCCC[C@@H]1NC(=O)[C@@H]2CC[C@@H](C2)NC(=O)[C@H]([C@@H](C)c2c[nH]c3c(OC)cccc23)NC(=O)CN(C)C(=O)[C@H](Cc2ccc(CCC(=O)O)cc2)NC(=O)[C@H](Cc2ccc(S(N)(=O)=O)cc2)NC(=O)[C@](C)(CO)NC(=O)[C@H](Cc2c[nH]c3c(C#N)cccc23)NC(=O)[C@H](Cc2ccc(OCC(=O)O)cc2)NC(=O)[C@H](CC(N)=O)NC(=O)[C@H]2C[C@H](O)CN2C(=O)[C@H](Cc2c[nH]c3ncccc23)NC(=O)[C@@H]2CC[C@@H](O)CN2C(=O)[C@H](Cc2ccncc2)NC1=O [SEQ ID NO. 30] (cyclo([4Pal][Pip(5R-OH)][Trp(7-aza)][dHyp]NY(Carboxymethyl)[Trp(7-CN)][αMeS][Phe(4-SO2NH2)][Phe(4-CH2CH2COOH)][Sar][Trp(βS-Me,7-OMe)][X1][Nle])) | 70 pM
CCCC[C@@H]1NC(=O)[C@@H]2CC[C@@H](C2)NC(=O)[C@H]([C@@H](C)c2c[nH]c3c(OC)cccc23)NC(=O)CN(C)C(=O)[C@H](Cc2ccc(C(N)=O)cc2)NC(=O)[C@H](Cc2ccc(C(N)=O)cc2)NC(=O)[C@](C)(CO)NC(=O)[C@H](Cc2c[nH]c3c(C#N)cccc23)NC(=O)[C@H](Cc2ccc(C(=O)O)cc2)NC(=O)[C@H](CC(N)=O)NC(=O)[C@H]2C[C@H](O)CN2C(=O)[C@H](Cc2c[nH]c3ccccc23)NC(=O)[C@@H]2CC[C@@H](O)CN2C(=O)[C@H](Cc2ccncc2)NC1=O [SEQ ID NO. 45] (cyclo([4Pal][Pip(5R-OH)]W[dHyp]N[Phe(4-COOH)][Trp(7-CN)][αMeS][Phe(4-CONH2)][Phe(4-CONH2)][Sar][Trp(βS-Me,7-OMe)][X1][Nle])) | 50 pM
CCCC[C@@H]1NC(=O)[C@@H]2CC[C@@H](C2)NC(=O)[C@H]([C@@H](C)c2c[nH]c3c(OC)cccc23)NC(=O)CN(C)C(=O)[C@H](Cc2ccc(CN)cc2)NC(=O)[C@H](Cc2ccc(C(N)=O)cc2)NC(=O)[C@](C)(CO)NC(=O)[C@H](Cc2c[nH]c3c(C#N)cccc23)NC(=O)[C@H](Cc2ccc(C(=O)O)cc2)NC(=O)[C@H](CC(N)=O)NC(=O)[C@H]2C[C@H](O)CN2C(=O)[C@H](Cc2c[nH]c3ccccc23)NC(=O)[C@@H]2CC[C@@H](O)CN2C(=O)[C@H](Cc2ccncc2)NC1=O [SEQ ID NO. 48] (cyclo([4Pal][Pip(5R-OH)]W[dHyp]N[Phe(4-COOH)][Trp(7-CN)][αMeS][Phe(4-CONH2)][Phe(4-CH2NH2)][Sar][Trp(βS-Me,7-OMe)][X1][Nle])) | 150 pM
